Series [1] concerns the target Acetylcholinesterase (Homo sapiens, UniProt P22303). As to the kind of experiment: Inhibition of human AChE using acetylthiocholine iodide as substrate preincubated with enzyme for 1 min followed by substrate addition and measured after 10 mins by Ellman's method. (DTNB colorimetry detects thiols as they appear.)
In series [2] the target is Cholinesterase (Homo sapiens, UniProt P06276). As to the kind of experiment: Inhibition of human BuChE using butyrylthiocholine iodide as substrate preincubated with enzyme for 1 min followed by substrate addition and measured after 10 mins by Ellman's method.
Series [3] deals with Glycogen synthase kinase-3 beta (Homo sapiens, UniProt P49841). As to the kind of experiment: biochemical.
Description: Inhibition of recombinant human N-terminal His6-tagged GSK-3beta H350L mutant expressed in baculovirus infected Sf21 cells using GSM as substrate incubated for 30 mins in presence of ATP by kinase-glo luminescence assay
Series [4] is described as follows: in vitro. The settings on record: PAMPA. On the technique in general: PAMPA measures passive passage across an artificial lipid membrane.
Description: Effective permeability of compound at 100 ug/ml incubated for 20 hrs by PAMPA-BBB assay
Series [5] is described as follows: Effect on cell morphology in LPS-treated mouse BV-2 cells at 5 uM pretreated for 1 hr followed by incubation with LPS for 24 hrs by fluorescence microscopic analysis. The format is ADME. As to conditions: bv-2, 25 h.
Series [6] deals with Mus musculus. In words: Cognitive enhancing effect in ICR mouse model of scopolamine-induced memory impairment assessed as improvement in trajectories to platform at 15 mg/kg, po administered 30 mins prior to scopolamine injection by Morris water maze test. In kind it is functional, organism-based.
Series [7] relates to BV-2. As to the kind of experiment: Inhibition of LPS-induced ROS production in mouse BV-2 cells at 5 uM incubated for 1 hr followed by LPS stimulation and measured after 24 hrs by DCFH-DA staining based inverted fluorescence microscopic analysis. In kind it is functional, cell-based. As to conditions: time 25.0 hrs.
A short description of series [8]: Effect on swimming speed in ICR mouse model of scopolamine-induced memory impairment at 15 mg/kg, po administered 30 mins prior to scopolamine injection by Morris water maze test. The format is ADME, organism-based. The settings on record: in vivo, 0.5 h.

SMILES strings stand for the structures. Active and inactive are the calls of the source. The rule behind the calls is not given here.

Glycogen synthase kinase-3 beta, sequence (P49841 whole entry): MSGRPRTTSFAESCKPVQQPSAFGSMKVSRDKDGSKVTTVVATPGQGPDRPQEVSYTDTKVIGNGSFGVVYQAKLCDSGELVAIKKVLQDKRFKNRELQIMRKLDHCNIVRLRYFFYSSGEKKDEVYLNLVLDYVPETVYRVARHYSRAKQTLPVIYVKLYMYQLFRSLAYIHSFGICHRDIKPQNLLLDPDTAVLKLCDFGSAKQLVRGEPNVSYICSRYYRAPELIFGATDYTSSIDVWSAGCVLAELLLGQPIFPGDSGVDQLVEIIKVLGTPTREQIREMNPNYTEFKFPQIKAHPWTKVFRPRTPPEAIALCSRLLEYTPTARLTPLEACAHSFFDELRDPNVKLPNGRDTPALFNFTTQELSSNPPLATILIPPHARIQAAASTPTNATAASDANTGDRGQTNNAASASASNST
Cholinesterase, sequence (P06276 whole entry): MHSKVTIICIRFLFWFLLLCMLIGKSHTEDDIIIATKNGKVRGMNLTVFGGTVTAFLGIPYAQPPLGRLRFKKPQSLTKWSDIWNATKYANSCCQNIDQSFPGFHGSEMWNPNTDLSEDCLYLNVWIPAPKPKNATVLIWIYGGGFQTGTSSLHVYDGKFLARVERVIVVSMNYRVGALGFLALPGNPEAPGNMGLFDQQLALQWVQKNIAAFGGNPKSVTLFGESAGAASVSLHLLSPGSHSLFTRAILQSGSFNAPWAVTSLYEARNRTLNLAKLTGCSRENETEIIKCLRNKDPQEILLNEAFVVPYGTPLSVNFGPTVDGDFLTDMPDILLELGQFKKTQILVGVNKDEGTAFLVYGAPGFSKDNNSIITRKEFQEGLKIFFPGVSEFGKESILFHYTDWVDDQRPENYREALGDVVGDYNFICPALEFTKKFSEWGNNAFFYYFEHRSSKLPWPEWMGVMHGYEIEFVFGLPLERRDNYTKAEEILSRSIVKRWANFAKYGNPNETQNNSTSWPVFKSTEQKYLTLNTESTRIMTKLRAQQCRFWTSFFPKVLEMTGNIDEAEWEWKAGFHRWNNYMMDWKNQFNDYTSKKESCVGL
Acetylcholinesterase, sequence (P22303 whole entry): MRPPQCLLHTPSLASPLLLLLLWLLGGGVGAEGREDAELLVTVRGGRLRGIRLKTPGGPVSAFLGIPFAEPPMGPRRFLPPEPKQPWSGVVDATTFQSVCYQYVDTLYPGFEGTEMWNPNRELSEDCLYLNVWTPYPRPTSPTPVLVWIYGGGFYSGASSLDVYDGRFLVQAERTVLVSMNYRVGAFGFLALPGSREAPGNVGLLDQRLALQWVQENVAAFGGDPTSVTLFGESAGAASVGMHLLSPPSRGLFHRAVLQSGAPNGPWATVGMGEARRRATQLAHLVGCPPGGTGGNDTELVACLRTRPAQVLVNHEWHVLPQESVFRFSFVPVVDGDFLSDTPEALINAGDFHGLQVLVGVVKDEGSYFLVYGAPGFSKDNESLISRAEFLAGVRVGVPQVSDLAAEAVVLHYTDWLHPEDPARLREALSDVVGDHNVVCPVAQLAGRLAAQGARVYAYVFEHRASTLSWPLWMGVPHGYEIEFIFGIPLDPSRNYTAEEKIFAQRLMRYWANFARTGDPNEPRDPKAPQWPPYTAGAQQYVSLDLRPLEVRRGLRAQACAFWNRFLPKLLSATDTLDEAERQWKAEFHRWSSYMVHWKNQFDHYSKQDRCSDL

The IC50 is the midpoint of a concentration-inhibition curve. A higher IC50 goes with lower potency. `CNC(=O)c1sc(-c2ccnc(NC(=O)CNCCCCCCCCNc3c4c(nc5ccccc35)CCCC4)c2)nc1OCC1CC1`: the IC50 in series [1] came out at 0.0152 µM; in series [2], 0.0032 µM; in series [3], 0.0622 µM.

A word on the Papp: it is a coefficient for how fast a substance crosses the barrier. Lower therefore signals slow passage. As to `CCn1cc(C(=O)O)c(=O)c2cc(F)c(N3CCNC(C)C3)c(F)c21` (stereo unspecified) [LOMEFLOXACIN], the Papp at 20 h, 100 ug/ml in series [4] worked out at 9 nm/s.

In the case of `CNC(=O)c1sc(-c2ccnc(NC(=O)CNCCCCCCNc3c4c(nc5ccccc35)CCCC4)c2)nc1OCC1CC1`, the IC50 came to 0.0219 µM in series [1], 0.0082 µM in series [2] and 0.062 µM in series [3].

Consider `O=C(NCCCNc1c2c(nc3ccccc13)CCCC2)c1sc(-c2ccnc(NC(=O)C3CCC3)c2)nc1OCC1CC1`, for which the IC50 in series [1] is 0.295 µM; in series [2] it was 0.0307 µM; in series [3], 0.0807 µM.

`CNC(=O)c1sc(-c2ccnc(NC(=O)C3CC3)c2)nc1OCCCc1cn(CCNc2c3c(nc4ccccc24)CCCC3)nn1`: the results for the IC50 in series [1], in series [2] and in series [3] were 0.168 µM, 0.17 µM and 0.0643 µM, respectively.

For `CNC(=O)c1sc(-c2ccnc(NC(=O)CNCCNc3c4c(nc5ccccc35)CCCC4)c2)nc1OCC(C)(C)C`, the results for the IC50 in series [1], in series [2] and in series [3] were 0.103 µM, 0.236 µM and 0.165 µM, respectively.

Consider `CNC(=O)c1sc(-c2ccnc(NC(=O)CNCCNc3c4c(nc5ccccc35)CCCC4)c2)nc1OC`, for which the IC50 in series [1] was determined as 0.0974 µM; in series [2] it was 0.262 µM; in series [3] it was 0.0411 µM.

As to `CNC(=O)c1sc(-c2ccnc(NC(=O)C3CC3)c2)nc1OCCOCc1cn(CCNc2c3c(nc4cc(Cl)ccc24)CCCC3)nn1`, the results for the IC50 in series [1], in series [2] and in series [3] were 0.0121 µM, greater than 1 µM and 0.0263 µM, respectively. The molecule further registered a Papp at 20 h, 100 ug/ml in series [4] of 42 nm/s.

Take `CNC(=O)c1sc(-c2ccnc(NC(=O)C3CC3)c2)nc1OCCc1cn(-c2c3c(nc4ccccc24)CCCC3)nn1`: the IC50 is greater than 1 µM in series [1], 0.6 µM in series [2] and 0.0517 µM in series [3].

Take `COc1nc(-c2ccnc(NC(=O)C3CC3)c2)sc1C(N)=O`: the figures for the IC50 in series [1], in series [2] and in series [3] were greater than 1 µM, greater than 1 µM and 0.0172 µM, respectively.

Turning to `CNC(=O)c1sc(-c2ccnc(NC(=O)CNCCNc3c4c(nc5ccccc35)CCCC4)c2)nc1OC(C)C`, the values for the IC50 in series [1], in series [2] and in series [3] were 0.237 µM, 0.33 µM and 0.0716 µM, respectively.

As for `CNC(=O)c1sc(-c2ccnc(NC(=O)CNCCNc3c4c(nc5ccccc35)CCCC4)c2)nc1OCC1CCC1`, the IC50 worked out at 0.155 µM in series [1], 0.277 µM in series [2] and 0.13 µM in series [3].

As for `CNC(=O)c1sc(-c2ccnc(NC(=O)C3CC3)c2)nc1OCCOCc1cn(CCNc2c3c(nc4ccccc24)CCCC3)nn1`, the IC50 in series [1] is 0.0447 µM; in series [2] it was 0.36 µM; in series [3], 0.0208 µM. In addition, the Papp at 20 h, 100 ug/ml in series [4] worked out at 46 nm/s. Further, the Activity entry in series [5] and in series [8] was “Non-Toxic” in each case. Besides, in series [6], the outcome was Active. Moreover, in series [7], the inhibition result is “Active”.

On to `CNC(=O)c1sc(-c2ccnc(NC(=O)C3CC3)c2)nc1OCCc1cn(CCNc2c3c(nc4ccccc24)CCCC3)nn1`, for which the IC50 turned out to be 0.269 µM in series [1], 0.3 µM in series [2] and 0.072 µM in series [3].

Turning to `NC(=O)c1sc(-c2ccnc(NC(=O)C3CC3)c2)nc1OCCc1cn(-c2c3c(nc4ccccc24)CCCC3)nn1`, the values for the IC50 in series [1], in series [2] and in series [3] were greater than 1 µM, greater than 1 µM and 0.0065 µM, respectively.

As to `CNC(=O)c1sc(-c2ccnc(NC(=O)CNCCNc3c4c(nc5ccc(OC)cc35)CCCC4)c2)nc1OCC1CC1`, the IC50 in series [1] was 0.0307 µM; in series [2], greater than 1 µM; in series [3], 0.0393 µM. In addition, the Papp at 20 h, 100 ug/ml in series [4] stood at 57 nm/s.

Consider `CNC(=O)c1sc(-c2ccnc(NC(=O)C3CC3)c2)nc1OCCOCc1cn(CCNc2c3c(nc4ccc(OC)cc24)CCCC3)nn1`, for which the IC50 was greater than 1 µM in series [1], greater than 1 µM in series [2] and 0.031 µM in series [3].

Turning to `CNC(=O)c1sc(-c2ccnc(NC(=O)C3CC3)c2)nc1OCCc1cn(CCNc2c3c(nc4cc(Cl)ccc24)CCCC3)nn1`, the results for the IC50 in series [1], in series [2] and in series [3] were 0.0387 µM, greater than 1 µM and 0.0467 µM, respectively. In addition, in series [4], the Papp at 20 h, 100 ug/ml came out at 47 nm/s.

Regarding `CC(=O)Nc1cc(-c2nc(OCC3CC3)c(C(=O)NCCCNc3c4c(nc5ccccc35)CCCC4)s2)ccn1`, the IC50 turned out to be 0.394 µM in series [1], 0.173 µM in series [2] and 0.0928 µM in series [3].

For the molecule `CNC(=O)c1sc(-c2ccnc(NC(=O)CNCCNc3c4c(nc5cc(Cl)ccc35)CCCC4)c2)nc1OCC1CC1`, the IC50 in series [1] was determined as 0.0405 µM; in series [2] it was 0.613 µM; in series [3], 0.0626 µM.

For the molecule `O=C(NCCCNc1c2c(nc3ccccc13)CCCC2)c1sc(-c2ccnc(NC(=O)C3CC3)c2)nc1OCC1CC1`, the figures for the IC50 in series [1], in series [2] and in series [3] were 0.312 µM, 0.216 µM and 0.104 µM, respectively.

With `CNC(=O)c1sc(-c2ccnc(NC(=O)C3CC3)c2)nc1OCCOCc1cn(-c2c3c(nc4ccccc24)CCCC3)nn1`, the IC50 was greater than 1 µM in series [1], 0.2 µM in series [2] and 0.0839 µM in series [3].

Regarding `NC(=O)c1sc(-c2ccnc(NC(=O)CNCCNc3c4c(nc5ccccc35)CCCC4)c2)nc1OCC1CC1`, the results for the IC50 in series [1], in series [2] and in series [3] were 0.0008 µM, 0.19 µM and 0.0426 µM, respectively. In addition, in series [4], the Papp at 20 h, 100 ug/ml is 49 nm/s.

With `CNC(=O)c1sc(-c2ccnc(NC(=O)CNCCNc3c4c(nc5ccccc35)CCCC4)c2)nc1OCC(C)C`, the IC50 in series [1] was found to be 0.0492 µM; in series [2], 0.619 µM; in series [3], 0.132 µM.

In series [4], `CCn1cc(C(=O)O)c(=O)c2ccc(-n3cccc3)cc21` returned a Papp at 20 h, 100 ug/ml of 25 nm/s.

Turning to `CCNC(=O)c1sc(-c2ccnc(NC(=O)CNCCNc3c4c(nc5ccccc35)CCCC4)c2)nc1OCC1CC1`, the IC50 in series [1] was found to be 0.0452 µM; in series [2], 0.512 µM; in series [3] it was 0.114 µM.

For the molecule `CNC(=O)c1sc(-c2ccnc(NC(=O)C3CC3)c2)nc1OCCc1cn(CCNc2c3c(nc4ccc(OC)cc24)CCCC3)nn1`, the results for the IC50 in series [1], in series [2] and in series [3] were greater than 1 µM, 0.0375 µM and 0.0371 µM, respectively.

For `CNC(=O)c1sc(-c2ccnc(NC(=O)CNCCCCNc3c4c(nc5ccccc35)CCCC4)c2)nc1OCC1CC1`, the IC50 in series [1] was 0.0231 µM; in series [2], 0.0483 µM; in series [3] it was 0.0416 µM. The molecule also returned an apparent permeability coefficient (Papp) at 20 h, 100 ug/ml in series [4] of 71 nm/s.

As for `CCCNC(=O)c1sc(-c2ccnc(NC(=O)CNCCNc3c4c(nc5ccccc35)CCCC4)c2)nc1OCC1CC1`, the values for the IC50 in series [1], in series [2] and in series [3] were 0.0049 µM, 0.0895 µM and 0.239 µM, respectively.

Turning to `CNC(=O)c1sc(-c2ccnc(NC(=O)C3CC3)c2)nc1OCCCc1cn(CCNc2c3c(nc4ccc(OC)cc24)CCCC3)nn1`, the IC50 in series [1] is greater than 1 µM; in series [2], greater than 1 µM; in series [3] it was 0.0146 µM.

These data come from ChEMBL document CHEMBL4706588, “Rational design and biological evaluation of a new class of thiazolopyridyl tetrahydroacridines as cholinesterase and GSK-3 dual inhibitors for Alzheimer's disease” (Eur J Med Chem, 2020).
